As usually defined, the IC50 is the concentration that inhibits the measured activity by half.

From article PMC7252647, “Inhibition of the NAD salvage pathway in schistosomes impairs metabolism, reproduction, and parasite survival” (PLoS Pathogens, 2020) come the findings set out here.

For this experiment, the system named is T1, native SmNACE.
T1 construct: native ectoenzyme on the outer tegument of live adult worms (2 male + 2 female per well)
Kind of experiment: fluorimetric NAD glycohydrolase assay on live adult worms, ε-ADPR release. Type of experiment: cell-based, Schistosoma mansoni. Conditions: ε-NAD substrate (20 μM in the assay), live worms (2 male + 2 female) in 200 μl HBSS, 37 °C. The text has this: fluorimetric NAD glycohydrolase assay on live adult worms, ε-ADPR release on native SmNACE | The IC50 of CMP1 on live parasites is indicated.

For the compound `Cc1occc1C(=O)N/N=C\c1ccc(O)c(O)c1` [CMP1, (Z)-N′-(3,4-Dihydroxybenzylidene)-2-methylfuran-3-carbohydrazide], the IC50 amounted to 78 µM.
